Test system: M. tuberculosis H37Rv growth inhibition
Assay: M. tuberculosis H37Rv growth inhibitors, H37Rv strain (AID 1626)
Conditions: for IC90: measured here: IC90 against H37Rv; for CC50: measured here: Vero cell cytotoxicity

| Compound | IC50 [µM] | IC90 [µM] | CC50 [µM] |
| --- | --- | --- | --- |
| COC(=O)C(Oc1ccc2c(-c3ccc(OC)cc3)cc(=O)oc2c1)c1ccccc1 (stereo not given) | 15.4 | 20.9 |  |
| O=C1c2cccc3cc([N+](=O)[O-])cc(c23)C(=O)N1CCN1CCCC1 | 4.6 | 5.71 | 1.8 |
| CCOc1ccc(NC(=O)CCSc2ccc3ccccc3n2)cc1 | 6.54 | > 100 |  |
| O=C(CSc1nc2ccc(Nc3nc(N4CCOCC4)nc(N4CCOCC4)n3)cc2s1)NCc1ccco1 | 36.5 | > 100 | > 40 |
| N#C/C(=C/c1cn(-c2ccccc2)nc1-c1cccc(OCc2ccc(F)cc2)c1)C(=O)NCCCn1ccnc1 | 4.19 | 6.45 | 22.5 |
| Cc1ccc(Nc2nnc(SCC(=O)Nc3cccnc3Cl)s2)cc1C | 1.63 | 3.5 |  |
| CCCCCCCOc1ccc(OC(=O)c2cccnc2)cc1 | 6.32 | > 100 | 15.4 |
| O=C(Cc1cccs1)Nc1cccc(-c2nc3cc4ccccc4cc3[nH]2)c1 | 15.5 | 24.3 | 21 |
| O/N=C/c1ccc(-c2cc(Cl)ccc2Cl)o1 |  | > 100 |  |
| OC1(C#Cc2c(-c3ccsc3)oc3ccc(N4CCOCC4)cc23)CCCCC1 | 15 | > 100 | > 40 |
| O=C(c1nnsc1S(=O)(=O)c1ccc(Cl)cc1)N1CCOCC1 | 7.98 | 11.6 | 11.3 |
| COc1ccc(OC(=O)c2cnn(-c3ccccc3)c2C)cc1 | 71.2 | > 100 |  |
| COc1cc(/C=C/C(=O)OCC(=O)NC(=O)NC23CC4CC(CC(C4)C2)C3)ccc1OCC#N | 8.37 | > 100 | > 40 |
| Cc1ccc(-c2ccc(/C=C/C(=O)c3ccccc3)o2)cc1 | 19.6 | > 100 | 24.7 |
| CN(C(=O)c1ccco1)c1nc2c(s1)CCCC2 |  |  | > 40 |
| N#CC(C(=O)C12CC3CC(CC(C3)C1)C2)c1nc2ccccc2[nH]1 (stereo not given) | 9.8 | > 100 | > 40 |
| COc1ccc(CCNC(=O)c2ccc(CN3CCC(Cc4ccccc4)CC3)cc2)cc1 |  | > 100 | > 40 |
| Cc1ccc2c(c1)c1c3n2CCN=C3CCC1 | 7.43 | 15.8 |  |
| O=C1c2ccccc2-n2c1nc1ccccc1c2=O | < 0.195 | 0.601 | > 40 |
| CCCc1ccc(C2C3=C(CC(C)(C)CC3=O)NC3=C2C(=O)c2ccccc23)cc1 (stereo not given) | 5.54 | > 100 | > 40 |
| COc1cc(CN2CCCC(C(=O)c3ccccc3SC)C2)cc(OC)c1 (stereo not given) | 22.7 | 25.9 | > 40 |
| Cc1cc(Cl)ccc1OCCCC(=O)NO | 28.6 | > 100 | 35.7 |
| Cc1ccc(C(=O)/C=C/c2ccccc2[N+](=O)[O-])cc1 | 4.21 | 7.62 | 26.5 |
| COc1ccc(C(=O)OCCNC(=O)c2c(Cl)nc3ccccn23)cc1 | 5.08 | 15.8 |  |
| CCCCCn1c(N2CCC(Cc3ccccc3)CC2)nc2c1c(=O)[nH]c(=O)n2C | 11.8 | 13.4 | 24.1 |
| Cc1ccc(C(=O)N2CCN(c3ccc(NC(=O)COc4ccccc4C)cc3)CC2)cc1 | 9.58 | > 100 | > 40 |
| CCOc1cc(CNC(C)(C)CO)cc(Br)c1OCc1ccc(Cl)cc1Cl | 11.4 | 12.3 | 12.7 |

| Compound | IC50 [µM] | IC90 [µM] | CC50 [µM] |
| --- | --- | --- | --- |
| O=C(c1ccc(F)cc1)C(CN1CCOCC1)c1ccccc1 (stereo not given) | 6.14 | 7.01 | 20.7 |
| COc1ccccc1/C=C/C(=O)Oc1cccc2cccnc12 | 2.8 | 3.05 | 37.9 |
| Cc1cc(C)nc(-n2nc(C)cc2Nc2ccccc2)n1 | 3.27 | 13.6 | > 40 |
| CC1(c2ccccc2)CC(C)(C)N(C(=O)c2cc([N+](=O)[O-])cc([N+](=O)[O-])c2)c2ccccc21 (stereo not given) | 13.4 | 54.5 | > 40 |
| Cc1c(CNC(=O)c2cnn3c2NC(c2ccc(Br)cc2)CC3C(F)(F)F)cnn1C (stereo not given) | 4.09 | 6.49 |  |
| COc1ccc2ncc(OC(C)=O)cc2c1 |  | > 100 |  |
| Cc1ccc(N(CCC#N)C(=O)CCl)cc1C | 19.7 | 38.4 | 1.94 |
| O=[N+]([O-])c1ccc(-n2nnnc2-c2ccccc2)c([N+](=O)[O-])c1 | 5.8 | 9.88 | 10.7 |
| CCOc1ccc2nc(NC(=O)CSc3nnnn3C3CCCCC3)sc2c1 | 56.4 | > 100 |  |
| CC(=O)Nc1cccc(C(=O)/C=C/c2ccc(Br)cc2)c1 | 6.48 | 9.82 | 10.7 |
| CN=C(Nc1cc(Cl)ccc1Cl)SC1CC(=O)N(c2ccc(C(=O)OC)cc2)C1=O (stereo not given) | 24.9 | > 100 | > 40 |
| CCOc1cc(/C=C2\SC(=N)N(c3nccs3)C2=O)ccc1OCCN1CCOCC1 | 0.393 | 1.02 | 19.1 |
| CCOc1c2c(nc3ccc(Cl)cc13)CCC2 | 5.14 | 21.4 | > 40 |
| COc1ccc(C(C(=O)NC2CCCCC2)N(C(=O)c2sc(C)nc2C)c2ccc(C(C)=O)cc2)cc1 (stereo not given) | 65.5 | > 100 |  |
| CC(=O)Nc1nc2ccccc2n1Cc1ccccc1 | 2.74 | 3.59 | > 40 |
| O=C(Nc1ccc(Cl)cc1)c1cc2c(cc1O)[nH]c1ccccc12 | 1.71 | 2.29 | 13.4 |
| CCCCOC(=O)c1ccc(NC(=O)C(=O)NCc2cccnc2)cc1 | 22.1 | > 100 |  |
| O=C(/C=C/c1ccc(Cl)c([N+](=O)[O-])c1)c1cccnc1 | 1.18 | 2.47 | 38.8 |
| C=CCn1c(O)c(C(C)=Nc2ccc(C(=O)OCC)cc2)c(=O)[nH]c1=O | 14 | > 100 |  |
| Cc1c([N+](=O)[O-])cc(C(=O)NCc2ccc(F)cc2)cc1[N+](=O)[O-] | < 0.195 | > 100 |  |
| COc1ccc(NC(=O)c2ccc(-c3ccc([N+](=O)[O-])cc3)o2)cc1 |  | > 100 |  |
| COc1cc(/C=C/c2ccc3c([N+](=O)[O-])cccc3n2)ccc1OCC(=O)O | 2.72 | 6.3 |  |
| Cn1nnnc1SCC(=O)Nc1nc(-c2ccccc2)c(-c2ccccc2)o1 | 35.6 | > 100 | > 40 |
| c1ccc(C2[C@H]3CN(CC4CCCCC4)[C@H](c4ccccc4)C34CC2(c2cccnc2)C4)cc1 (stereo not given in full) | 15 | 23.4 |  |
| O=[N+]([O-])c1ncccc1Oc1nc(-c2cccnc2)nc2ccccc12 | 7.07 | > 100 |  |
| O=C(Nc1nc(-c2ccccn2)cs1)C1CC1 | 3.96 | > 100 | > 40 |
| CCOC(=O)c1ccc(NC(=O)CSc2ccc(-c3cccnc3)nn2)cc1 | 29.1 | > 100 | > 40 |

| Compound | IC50 [µM] | IC90 [µM] | CC50 [µM] |
| --- | --- | --- | --- |
| Cc1cc(NC(=O)c2sccc2C)n(-c2nc3ccccc3[nH]2)n1 | < 0.391 | 18.1 | 31.2 |
| CCOC(=O)c1ccc(N2C(=O)c3n[nH]c(-c4ccco4)c3C2c2ccc([N+](=O)[O-])cc2)cc1 (stereo not given) | 9.07 | 17 | 28 |
| O=c1c(C=Nc2ccc(Oc3ccccc3)cc2)c[nH]n1-c1cccc(Cl)n1 |  | > 100 | > 40 |
| Cc1ccc(CNC(=O)c2ccc([N+](=O)[O-])o2)cc1 | < 0.391 | 2.89 | 8.28 |
| O=C(Nc1nnc(-c2ccco2)o1)c1cccc2ccccc12 | 2.34 | 6.25 | 39.4 |
| CCOC(=O)Cc1csc(NC(=O)c2c(O)c3ccccc3n(CCC(C)C)c2=O)n1 | < 0.195 | 0.224 | 8.48 |
| c1ccc(-c2nnc(SCc3nnc(-c4cccs4)o3)o2)cc1 | 6.34 | 11.6 |  |
| CC(=O)c1cccc(NC(=O)/C=C/c2ccc([N+](=O)[O-])s2)c1 | 6.51 | 57.4 | > 40 |
| CCc1ccc(Nc2c([N+](=O)[O-])c(=O)oc3ccccc23)cc1 |  | > 100 | > 40 |
| COc1ccc(N2CN=C3SCC(=O)N3C2)cc1 | 46.5 | > 100 |  |
| CCn1c(CNc2ccccc2Cl)nnc1SCC(=O)OC1CCCCC1 | 1.63 | 3.2 |  |
| O=c1c([N+](=O)[O-])cc(C(F)(F)F)cn1Cc1cccc(Cl)c1 | 8.56 | 22.2 |  |
| O=C(c1cc2c(F)cccc2s1)N1CCCC1 | 7.87 | > 100 |  |
| COC(=O)c1ccc(Cn2cc(C(F)(F)F)cc([N+](=O)[O-])c2=O)cc1 | 29.9 | > 100 |  |
| CCCOC(=O)c1ccc(NC(=O)C2CCCO2)cc1 (stereo not given) | 10.3 | > 100 |  |
| CSCCC(NC(=O)c1cc([N+](=O)[O-])cc([N+](=O)[O-])c1)c1nc2ccccc2[nH]1 (stereo not given) | 5.37 | 5.96 |  |
| COc1ccc(OC)c(C2C3=C(N=c4s/c(=C\c5cccc(O)c5)c(=O)n42)c2ccccc2CC3)c1 (stereo not given) | 11.1 | > 100 | 19.9 |
| CCCCCc1cc(=O)oc2c(C(CCN3CCCC(C)C3)c3ccc(N(C)C)cc3)c(OC)cc(OC)c12 (stereo not given) | 5.6 | 6.31 | 16.5 |
| COc1ccc(C(=O)Oc2cccc3cccnc23)cc1[N+](=O)[O-] | 4.12 | 4.93 | 39 |
| CCOC(=O)C1=C(c2ccccc2)NC(N)=NC1c1ccc(OCc2ccc(Cl)cc2)c(OC)c1 (stereo not given) | 4.55 | 5.57 | 22.6 |
| CC(=O)Oc1ccc2oc3c(c2c1)C(=O)CCC3 | 12 | > 100 |  |
| OC(CNCc1ccco1)Cn1c2ccc(Br)cc2c2cc(Br)ccc21 (stereo not given) | 2.76 | 3.11 | 17.2 |
| CC(C)(C)c1ccc(OC(=O)c2ccc3snnc3c2)cc1 | 5.94 | > 100 |  |
| Cc1ccc(Cc2cnc(NC(=O)C3CCCO3)s2)cc1 (stereo not given) |  | > 100 | > 40 |
| CCOC(=O)N1C/C(=C\c2ccccc2)C(=O)/C(=C/c2ccccc2)C1 | 2.11 | > 100 | 19.3 |

— PubChem BioAssay AID1626 (SRMLSC, 2009)
